5 compounds from ChEMBL document CHEMBL3351456, “Synthesis and antiviral activities of 3-deaza-3-fluoroaristeromycin and its 5' analogues” (Bioorg Med Chem, 2014) can be followed below.

Series [1] deals with Pichinde virus. Briefly: Antiviral activity against Pichinde virus infected in African green monkey Vero 76 cells. In kind it is functional, organism-based.
Series [2] in a line: Selectivity index, ratio of CC50 for African green monkey Vero 76 cells to IC50 for Rift Valley fever virus. Format: functional.
Series [3] is described as follows: Cytotoxicity against African green monkey Vero cells. In kind it is cell-based. The note with it: chlorocebus sabaeus.
Series [4] in a line: Selectivity index, ratio of CC50 for African green monkey Vero E6 cells to IC50 for Monkeypox virus. Format: functional.
For series [5], the system named is Monkeypox virus. Briefly: Antiviral activity against Monkeypox virus infected in African green monkey Vero E6 cells. In kind it is functional, organism-based.
The nature of series [6]: Cytotoxicity against African green monkey Vero 76 cells. In kind it is cell-based. The note with it: chlorocebus sabaeus.
Series [7] has as its system Tacaribe virus. Briefly: Antiviral activity against Tacaribe virus infected in African green monkey Vero 76 cells. Format: functional, organism-based. The note with it: Mammarenavirus tacaribeense.
Series [8] can be described thus: Cytotoxicity against African green monkey Vero E6 cells. The note with it: chlorocebus sabaeus. Format: cell-based.
A short description of series [9]: Selectivity index, ratio of CC50 for human MRC5 cells to IC50 for Measles virus. In kind it is functional.
Series [10] is described as follows: Cytotoxicity against human MRC5 cells. Format: cell-based.
Series [11] deals with Rift Valley fever virus. Kind of series: Antiviral activity against Rift Valley fever virus infected in African green monkey Vero 76 cells. In kind it is functional, organism-based.
Series [12] deals with Vaccinia virus. Briefly: Antiviral activity against Vaccinia virus infected in HFF cells. In kind it is functional, organism-based. The note with it: Orthopoxvirus vaccinia.
Series [13] in a line: Cytotoxicity against HEK293 cells. Format: cell-based. The note with it: human.
The nature of series [14]: Selectivity index, ratio of CC50 for HFF cells to IC50 for human cytomegalovirus. Format: functional.
Series [15] is described as follows: Selectivity index, ratio of CC50 for HFF cells to IC50 for Vaccinia virus. Format: functional.
Series [16] in a line: Inhibition of rabbit erythrocyte SAHase using S-adenosyl-L-homocysteine as substrate assessed as L-homocysteine formation incubated for 5 mins prior to substrate addition measured after 1 hr. More on the design: species or system Oryctolagus cuniculus.
Series [17] deals with Human papillomavirus. Briefly: Antiviral activity against Human papillomavirus infected in HEK293 cells. In kind it is functional, organism-based.
Series [18] in a line: Selectivity index, ratio of CC50 for African green monkey Vero cells to IC50 for Pichinde virus. Format: functional.
In series [19] the test system is Human betaherpesvirus 5. Briefly: Antiviral activity against human cytomegalovirus infected in HFF cells. The note with it: Human betaherpesvirus 5, HFF. In kind it is functional, organism-based.
Series [20] deals with Measles morbillivirus. Kind of series: Antiviral activity against Measles virus infected in human MRC5 cells. Format: functional, organism-based.
The nature of series [21]: Selectivity index, ratio of CC50 for African green monkey Vero cells to IC50 for Tacaribe virus. Format: functional.
Series [22] is described as follows: Cytotoxicity against HFF cells. Format: cell-based. The note with it: human.
In series [23] the test system is Hepatitis B virus. Kind of series: Antiviral activity against HBV. In kind it is functional, organism-based.
Series [24] in a line: Selectivity index, ratio of CC50 for HEK293 cells to IC50 for Human papillomavirus. In kind it is functional.

One may read the IC50 as the concentration that gives 50% inhibition. The CC50 is the concentration that lowers cell viability or growth by half. As to `Nc1ncc(F)c2c1ncn2[C@@H]1C[C@H](CO)[C@@H](O)[C@H]1O`, the IC50 in series [1] is 24 µM; in series [5], below 0.32 µM; in [7] it was 14 µM; in series [11], 56 µM; in series [12], 48 µM; in series [16], 0.029 µM. The values for the IC50 in series [17], in series [19] and in [20] were above 100 µM, above 60 µM and below 0.32 µM, respectively. Further, the “Ratio CC50/IC50” value is above 6.3 in series [2]; above 313 in series [4]; above 313 in [9]; below 3 in series [14]; above 6 in series [15]; 7 in series [18]. Also, in series [21], the “Ratio CC50/IC50” value was 11. In addition, the 50% cytotoxic concentration (CC50) in series [3] is 159 µM; in series [6] it was above 300 µM; in series [8], above 100 µM; in series [10], above 100 µM; in series [13], above 100 µM; in [22], above 178 µM.
As a reminder, the EC50 is the concentration giving half of the maximal effect. For `Nc1ncc(F)c2c1ncn2[C@@H]1O[C@H](CO)[C@@H](O)[C@H]1O`, a half-maximal response in series [23] (EC50) required 9.2 µM.
With `Nc1ncc(F)c2c1ncn2[C@@H]1C[C@H](CCO)[C@@H](O)[C@H]1O`, the 50% inhibitory concentration (IC50) in series [1] is 30 µM; in series [5], below 0.32 µM; in series [7], 6.4 µM; in series [11] it was 34 µM; in series [12] it was 55.2 µM; in [16], 0.009 µM. Besides, the IC50 in series [17] was above 100 µM; in [19], 1.49 µM; in series [20], below 0.32 µM. Also, the “Ratio CC50/IC50” value in series [2] was above 10; in series [4], above 313; in series [9] it was above 313; in series [14] it was 177; in [15] it was above 5; in series [18] it was 5.7. Besides, the “Ratio CC50/IC50” value in series [21] was determined as 20. Besides, the CC50 was 128 µM in series [3]; above 300 µM in [6]; above 100 µM in [8]; above 100 µM in series [10]; above 100 µM in series [13]; above 264 µM in series [22].
In the case of `Nc1nccc2c1ncn2[C@@H]1C=C(CO)[C@@H](O)[C@H]1O`, in series [16], the IC50 came out at 0.0093 µM.
For the compound `Nc1ncc(F)c2c1ncn2[C@@H]1C[C@H](O)[C@@H](O)[C@H]1O`, the IC50 in series [1] is above 300 µM; in [5], below 0.32 µM; in series [7] it was above 300 µM; in [11] it was above 300 µM; in series [12], 142 µM; in [16], 0.0058 µM. The values for the IC50 in [17], in series [19] and in series [20] were 23.9 µM, above 300 µM and below 0.32 µM, respectively. Also, the half-maximal cytotoxic concentration (CC50) in [3] was above 300 µM; in series [6] it was above 300 µM; in [8] it was above 100 µM; in [10], above 100 µM; in series [13], above 100 µM; in series [22], above 300 µM. The “Ratio CC50/IC50” value in series [4] is given as above 313; in series [9] it was above 313; in series [24], above 4; in series [15], above 2.
